What is called IC50 is the concentration needed to halve the response being measured.

≈ marks a conversion by molar mass, not a printed value. Where two headings read alike, the source gives them in different places.

The values that follow come from paper PMC11943097, “Phytochemical Characterization and Anticancer Activity of Clerodendrum chinense Leaf Extract Against Breast and Cervical Cancer Cells” (International Journal of Molecular Sciences, 2025).

Common to all, as to format: cell-based
The subject of one experiment is MCF-7 cells. Nature of the experiment: MTT cell viability assay, MCF-7 cells. As to conditions: Homo sapiens. On the procedure:
(§1) MCF-7, HeLa, and RAW264.7 cells were cultured in DMEM supplemented with 10% FBS and 1% penicillin/streptomycin. Cell culture was maintained at 37 °C in a 5% CO2 incubator.
(§2) The assessment of cell viability was performed using an MTT assay to assess the cytotoxic effects of CCL on MCF-7, Hela, and RAW264.7 cells. Initially, MCF-7, HeLa, and RAW264.7 cells were seeded onto 96-well plates at a density of 2 × 10^4 cells/mL. Following a 24-h incubation period, the culture medium was replaced with a serum-free medium containing specified concentrations of CCL, verbascoside, isoverbascoside, and hispidulin ranging from 12.5 to 1000 µg/mL. Following 24, 48, and 72 h of treatment, an MTT solution (0.5 mg/mL in culture medium) was added to each well and incubated at 37 °C for 2 h. The metabolically active cells converted MTT into formazan crystals, which were then dissolved in 100 µL of DMSO per well. Absorbance was recorded at 550 nm using a SpectraMax 3 microplate reader (Molecular Devices, San Jose, CA, USA). The IC50 values were determined using GraphPad Prism v.7.0 (La Jolla, CA, USA). Cell viability was assessed in comparison to untreated control cells using the following equation: Cell viability %=A550sample/A550control×100%
(Tetrazolium dyes change colour on reduction, which living cells bring about.)

In a further experiment the test system is HeLa cells. Put plainly: MTT cell viability assay, HeLa cells. As to conditions: Homo sapiens. The procedure: as §1, §2
The next experiment relates to RAW 264.7 macrophages. Nature of the experiment: MTT cell viability assay, RAW264.7 cells. To be noted: Mus musculus. On the procedure:
as §1, §2

Regarding `C[C@@H]1O[C@@H](O[C@@H]2[C@@H](O)[C@H](OCCc3ccc(O)c(O)c3)O[C@H](CO)[C@H]2OC(=O)/C=C/c2ccc(O)c(O)c2)[C@H](O)[C@H](O)[C@H]1O` [Verbascoside], the IC50 was determined as 186 µg/mL (≈ 297 µM) in the experiment with MCF-7 cells (MCF7, MCF-7, 24 h, MTT, read-out: IC50); 184 µg/mL (≈ 294 µM) in the experiment on MCF-7 cells (MCF7, MCF-7, 48 h, MTT, read-out: IC50); 173 µg/mL (≈ 277 µM) in the experiment on MCF-7 cells (MCF7, MCF-7, 72 h, MTT, read-out: IC50); 373 µg/mL (≈ 597 µM) in the experiment with HeLa cells (24 h, MTT, read-out: IC50); 291 µg/mL (≈ 466 µM) in the experiment with HeLa cells (48 h, MTT, read-out: IC50); 342 µg/mL (≈ 547 µM) with HeLa cells (72 h, MTT, read-out: IC50). The half-inhibitory concentration (IC50) in the experiment on RAW 264.7 macrophages (RAW264.7, RAW 264.7, 24 h, MTT, read-out: IC50) was 432 µg/mL (≈ 691 µM); with RAW 264.7 macrophages (RAW264.7, RAW 264.7, 48 h, MTT, read-out: IC50), 446 µg/mL (≈ 714 µM); in the experiment on RAW 264.7 macrophages (RAW264.7, RAW 264.7, 72 h, MTT, read-out: IC50) it was 480 µg/mL (≈ 769 µM).
Consider `COc1c(O)cc2oc(-c3ccc(O)cc3)cc(=O)c2c1O` [Hispidulin], for which the IC50 in the experiment with MCF-7 cells (MCF7, 24 h) came to 905 µg/mL (≈ 3010 µM); with MCF-7 cells (MCF7, 48 h) it was 710 µg/mL (≈ 2370 µM); in the experiment with MCF-7 cells (MCF7, 72 h), 527 µg/mL (≈ 1760 µM); in the experiment with HeLa cells (24 h), 98.2 µg/mL (≈ 327 µM); in the experiment with HeLa cells (48 h), 119 µg/mL (≈ 397 µM); with HeLa cells (72 h) it was 311 µg/mL (≈ 1040 µM). Besides, the IC50 was determined as 99.2 µg/mL (≈ 330 µM) in the experiment with RAW 264.7 macrophages (RAW264.7, 24 h); 120 µg/mL (≈ 401 µM) in the experiment with RAW 264.7 macrophages (RAW264.7, 48 h); 180 µg/mL (≈ 600 µM) in the experiment with RAW 264.7 macrophages (RAW264.7, 72 h).
